According to patent US20200017495A1, “NOVEL HETEROCYCLIC COMPOUNDS AND THEIR USE IN PREVENTING OR TREATING BACTERIAL INFECTIONS” (priority 2017, published 2020):

System: Klebsiella pneumoniae (KPN) isolates
Assay: MIC of compounds alone and combined with antibacterials, broth microdilution (CLSI)
Assay type: cell-based
In short: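 Log-phase isolates were inoculated at a final 5.10^5 CFU/mL in cation-adjusted Mueller-Hinton broth and incubated 16-20 h at 35° C in ambient air. MIC was the lowest concentration preventing visible growth; for combinations, the antibacterial MIC was read at each compound concentration.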

C=CC1=C(C(=O)O)N2C(=O)[C@@H](NC(=O)/C(=N\OCC(=O)O)c3csc(N)n3)[C@H]2SC1 [FIX, Cefixime]
MIC ATB in combination (KPN UFR27, CLA @ 4 μg/mL): >128 µg/mL
MIC ATB in combination (KPN UFR28, AF2 @ 8 μg/mL): <0.25 µg/mL
MIC ATB in combination (KPN UFR28, AF3 @ 8 μg/mL): 2 µg/mL
MIC ATB in combination (KPN UFR28, CLA @ 4 μg/mL): 64 µg/mL
MIC ATB in combination (KPN UFR33, AF2 @ 8 μg/mL): <=0.25 μg/mL
MIC ATB in combination (KPN UFR33, AF3 @ 8 μg/mL): >128 µg/mL
MIC ATB in combination (KPN UFR33, CLA @ 4 μg/mL): >128 µg/mL
MIC ATB in combination (KPN UFR42, AF2 @ 8 μg/mL): 128 µg/mL
MIC ATB in combination (KPN UFR42, AF3 @ 8 μg/mL): >128 µg/mL
MIC ATB in combination (KPN UFR42, CLA @ 4 μg/mL): >128 µg/mL
MIC ATB in combination (KPN UFR43, AF2 @ 8 μg/mL): <0.25 µg/mL
MIC ATB in combination (KPN UFR43, AF3 @ 8 μg/mL): <0.25 µg/mL
MIC ATB in combination (KPN UFR43, CLA @ 4 μg/mL): >128 µg/mL
MIC ATB in combination (KPN UFR46, AF2 @ 8 μg/mL): >128 µg/mL
MIC ATB in combination (KPN UFR46, AF3 @ 8 μg/mL): >128 µg/mL
MIC ATB in combination (KPN UFR46, CLA @ 4 μg/mL): >128 µg/mL
MIC ATB in combination (KPN UFR53, AF2 @ 8 μg/mL): <0.25 µg/mL
MIC ATB in combination (KPN UFR53, AF3 @ 8 μg/mL): <=0.25 μg/mL
MIC ATB in combination (KPN UFR53, CLA @ 4 μg/mL): 128 µg/mL
MIC ATB in combination (KPN UFR65, AF2 @ 8 μg/mL): 0.5 µg/mL
MIC ATB in combination (KPN UFR65, AF3 @ 8 μg/mL): <=0.25 μg/mL
MIC ATB in combination (KPN UFR65, CLA @ 4 μg/mL): 128 µg/mL
MIC ATB in combination (KPN UFR66, AF2 @ 8 μg/mL): 4 µg/mL
MIC ATB in combination (KPN UFR66, AF3 @ 8 μg/mL): 4 µg/mL
MIC ATB in combination (KPN UFR66, CLA @ 4 μg/mL): 64 µg/mL
MIC ATB in combination (KPN UFR67, AF2 @ 8 μg/mL): 4 µg/mL
MIC ATB in combination (KPN UFR67, AF3 @ 8 μg/mL): 4 µg/mL
MIC ATB in combination (KPN UFR67, CLA @ 4 μg/mL): 128 µg/mL
MIC ATB in combination (KPN UFR68, AF2 @ 8 μg/mL): 0.5 µg/mL
MIC ATB in combination (KPN UFR68, AF3 @ 8 μg/mL): 0.5 µg/mL
MIC ATB in combination (KPN UFR68, CLA @ 4 μg/mL): 64 µg/mL
MIC ATB in combination (KPN UFR76, AF2 @ 8 μg/mL): >128 µg/mL
MIC ATB in combination (KPN UFR76, AF3 @ 8 μg/mL): >128 µg/mL
MIC ATB in combination (KPN UFR76, CLA @ 4 μg/mL): >128 µg/mL
MIC ATB in combination (KPN UFR77, AF2 @ 8 μg/mL): 0.5 µg/mL
MIC ATB in combination (KPN UFR77, AF3 @ 8 μg/mL): <=0.25 μg/mL
MIC ATB in combination (KPN UFR77, CLA @ 4 μg/mL): 128 µg/mL
MIC ATB in combination (KPN UFR78, AF2 @ 8 μg/mL): >128 µg/mL
MIC ATB in combination (KPN UFR78, AF3 @ 8 μg/mL): >128 µg/mL
MIC ATB in combination (KPN UFR78, CLA @ 4 μg/mL): >128 µg/mL
MIC ATB in combination (KPN UFR79, AF2 @ 8 μg/mL): 2 µg/mL
MIC ATB in combination (KPN UFR79, AF3 @ 8 μg/mL): 2 µg/mL
MIC ATB in combination (KPN UFR79, CLA @ 4 μg/mL): >128 µg/mL
MIC ATB in combination (KPN UFR80, AF2 @ 8 μg/mL): <=0.25 μg/mL
MIC ATB in combination (KPN UFR80, AF3 @ 8 μg/mL): <=0.25 μg/mL
MIC ATB in combination (KPN UFR80, CLA @ 4 μg/mL): 0.5 µg/mL
MIC ATB in combination (KPN UFR81, AF2 @ 8 μg/mL): 64 µg/mL
MIC ATB in combination (KPN UFR81, AF3 @ 8 μg/mL): 32 µg/mL
MIC ATB in combination (KPN UFR81, CLA @ 4 μg/mL): >128 µg/mL
MIC ATB in combination (KPN UFR215, AF2 @ 8 μg/mL): <=0.25 μg/mL
MIC ATB in combination (KPN UFR215, AF3 @ 8 μg/mL): <=0.25 μg/mL
MIC ATB in combination (KPN UFR215, CLA @ 4 μg/mL): 1 µg/mL
MIC ATB in combination (KPN UFR216, AF2 @ 8 μg/mL): <0.25 µg/mL
MIC ATB in combination (KPN UFR216, AF3 @ 8 μg/mL): <0.25 µg/mL
MIC ATB in combination (KPN UFR216, CLA @ 4 μg/mL): <=0.25 μg/mL
MIC ATB in combination (KPN UFR217, AF2 @ 8 μg/mL): <0.25 µg/mL
MIC ATB in combination (KPN UFR217, AF3 @ 8 μg/mL): <0.25 µg/mL
MIC ATB in combination (KPN UFR217, CLA @ 4 μg/mL): <=0.25 μg/mL
MIC ATB in combination (KPN UFR218, AF2 @ 8 μg/mL): <0.25 µg/mL
MIC ATB in combination (KPN UFR218, AF3 @ 8 μg/mL): <0.25 µg/mL
MIC ATB in combination (KPN UFR218, CLA @ 4 μg/mL): 1 µg/mL
MIC ATB in combination (KPN UFR219, AF2 @ 8 μg/mL): 0.5 µg/mL
MIC ATB in combination (KPN UFR219, AF3 @ 8 μg/mL): <=0.25 μg/mL
MIC ATB in combination (KPN UFR219, CLA @ 4 μg/mL): 0.5 µg/mL
MIC ATB in combination (KPN UFR220, AF2 @ 8 μg/mL): <0.25 µg/mL
MIC ATB in combination (KPN UFR220, AF3 @ 8 μg/mL): <0.25 µg/mL
MIC ATB in combination (KPN UFR220, CLA @ 4 μg/mL): >128 µg/mL
MIC ATB in combination (KPN UFR221, AF2 @ 8 μg/mL): <0.25 µg/mL
MIC ATB in combination (KPN UFR221, AF3 @ 8 μg/mL): <0.25 µg/mL
MIC ATB in combination (KPN UFR221, CLA @ 4 μg/mL): 128 µg/mL
MIC ATB in combination (KPN UFR222, AF2 @ 8 μg/mL): <0.25 µg/mL
MIC ATB in combination (KPN UFR222, AF3 @ 8 μg/mL): <0.25 µg/mL
MIC ATB in combination (KPN UFR222, CLA @ 4 μg/mL): >128 µg/mL
MIC ATB in combination (KPN UFR227O, AF2 @ 8 μg/mL): 8 µg/mL
MIC ATB in combination (KPN UFR227O, AF3 @ 8 μg/mL): 16 µg/mL
MIC ATB in combination (KPN UFR227O, CLA @ 4 μg/mL): >128 µg/mL
MIC (strain KPN 6299, genotype TEM-1, SHV-11, OXA-163): 8 µg/mL
MIC (strain KPN 110376, compound alone): >128 µg/mL
MIC (strain KPN 110376, genotype TEM-1, SHV-1, CTX-M-15, OXA-1, OXA-48): >128 µg/mL
MIC (strain KPN 121206, genotype SHV-1, NDM-1): >128 µg/mL
MIC (strain KPN 131119, compound alone): >128 µg/mL
MIC (strain KPN 131119, genotype TEM-1, SHV-11, CTX-M-15, OXA-1, OXA-48): >128 µg/mL
MIC (strain KPN 140347, genotype CTX-M-15, NDM-1, antibiotic alone): >128 µg/mL
MIC ATB in combination (strain KPN 140347, with AF2 @ 8 μg/mL): >128 µg/mL
MIC ATB in combination (strain KPN 140347, with AF3 @ 8 μg/mL): >128 µg/mL
MIC ATB in combination (strain KPN 140347, with CLA @ 4 μg/mL): >128 µg/mL
MIC (strain KPN 140513, genotype TEM-1, SHV-11, CTX-M-15, KPC-3): >128 µg/mL
MIC (strain KPN 160143, genotype TEM-1, SHV-1, CTX-M-15, KPC-2, OXA-1): >128 µg/mL
MIC (strain KPN 190128, genotype TEM-1, SHV-32, CTX-M-15, OXA-1): >128 µg/mL
MIC (strain KPN 190270, compound alone): >128 µg/mL
MIC (strain KPN 190270, genotype TEM-1, SHV-76, CTX-M-15, OXA-1): >128 µg/mL
MIC (strain KPN 190425, genotype TEM-1, SHV-1, CTX-M-15, OXA-1): >128 µg/mL
MIC (strain KPN 190551, genotype TEM-1, SHV-1, CTX-M-15, OXA-1): >128 µg/mL
MIC (strain KPN 200047, genotype TEM-1, SHV-32, CTX-M-15, OXA-1): >128 µg/mL
MIC (strain KPN 200327, genotype TEM-1, SHV-1, CTX-M-15, OXA-1): 64 µg/mL
MIC (strain KPN 260251, genotype TEM-1, SHV-11, SHV-12, CTX-M-15, KPC-2): >128 µg/mL
MIC (strain KPN 260252, genotype TEM-1, SHV-11, KPC-3): >128 µg/mL
MIC (strain KPN 260376, genotype SHV-1, SHV-49, OXA-1): >128 µg/mL
MIC (strain KPN 270077, genotype TEM-1, SHV-1, CTX-M-15): >128 µg/mL
